Tests used:
MC38 cells = experiment: MC38 therapy model in aged mice, tumor growth and survival; assay type: in vivo; details: 56-week old mice; combination PD-L1 antibody (2 mg/kg) + SPD (2 mg/kg)
Experimental: FIG. 7 MC38 cells (5×10^5) were intradermally inoculated into 56-week old mice, which were treated along with the treatment schedule described in FIG. 1. PD-L1 antibody (2 mg/kg) and SPD (2 mg/kg) were used. a) Tumor growth curve and survival curve are shown. b) The frequency of CD8^+ T cells among lymphocytes infiltrating into tumor (in CD45^+ gate) and the absolute number of CD8^+ T cells per mg tumor 13 days after tumor inoculation are shown. c) CD8^+ T cells were isolated from spleen cells on the same schedule as b) and cultured for 20 hours under the stimulation with CD3/CD28. Cell proliferation was examined by means of ^3H uptake. d) CD8^+ T cells were isolated from draining lymph nodes on the same schedule as b) and glycolytic pathway-derived or mitochondrial metabolism-derived ATP production was calculated by Seahorse. e) Spare respiratory capacity (SRC) was also calculated in the experiment (d).
MC38 cells (5×10^5) were intradermally injected on the right flank. […] Tumors were measured on every alternate day, and tumor volumes were calculated using the formula for typical ellipsoid, π×(length×breadth×height/6).
It is known from mouse model experiments that the effect of PD-1 inhibitory antibody therapy decreases in aged mice due to their decreased immunity. […] Spare respiratory capacity (SRC) was also calculated. […]

CD44 high CD8+ T cells = experiment: Mitochondria-related proteomics in vitro, CD44 high cells; assay type: cell-based, mice; details: late phase, 44 hours after SPD stimulation
Experimental: FIG. 6 CD8^+ T cells were isolated from the spleen of mice without tumor inoculation, and further isolated into CD44^+ (CD44 high) and CD44^− (CD44 low) cell populations. CD44 low cells and CD44 high cells were simulated with CD3/CD28 antibody beads and SPD (0.2 μM). After 1 hour and 44 hours, cells were collected and proteomics analyses regarding mitochondria-related proteins were conducted. A heat map showing the categories of respective signaling pathways, associated protein names and comparison of their expression levels is given.
T cells were prepared by two methods. For in vivo analysis, 13 days after tumor inoculation and 3 days after the start of therapy, draining lymph nodes from 5 mice were pooled, followed by isolation of CD8^+ T cells. From the isolated CD8^+ T cells, three samples each consisting of 1×10^6 cells were prepared and used for analysis. For in vitro experiments, 2×10^5 CD8^+ T cells stimulated with 0.2 μM spermidine for 1 hour were used. For mass spectrometry analysis, a Tandem Mass Tag (TMT) system or a Data Independent Acquisition (DIA) system was used. In the analysis of in vivo CD8^+ T cells (FIG. 3), those proteins which increased by 1.5-fold or more or decreased by 0.6-fold or less were extracted.

CD44 low CD8+ T cells = experiment: Observation of mitochondria under electron microscope, CD44 low cells; assay type: cell-based, mice; details: SPD 0.2 μM, 1 hour
Experimental: FIG. 5 CD8^+ T cells were isolated from the spleen of mice without tumor inoculation, and further isolated into CD44^+ (CD44 high) and CD44^− (CD44 low) cell populations. a) CD44 low cells were simulated with CD3/CD28 antibody beads and SPD (0.2 μM). […] Protein expression levels after 1 hour and 2 hours were confirmed by western blotting with the respective indicated antibodies. As regards statistical analysis, t-test was used for comparison of two groups. * p<0.05, ** p<0.01, *** p<0.001, **** p<0.0001.
CD8^+ T cells (2×10^5) were stimulated with 0.2 μM spermidine for 1 hour. Then, cells were harvested, embedded in Ipgell (GenoStaff) and fixed with 4% paraformaldehyde and 2% glutaraldehyde. Images were taken with a transmission electron microscope (TEM). Mitochondrial size was determined with ImageJ software. As regards mitochondrial number, average numbers in single cell were determined with Prism software. Blind testing was used for observation and analysis of mitochondria.

NCCCCNCCCN [SPD, spermidine]
tumor shrinking effect (MC38 cells): enhanced tumor shrinking effect
expression levels of mitochondrial proteins and proteins of mitochondria-related metabolism (CD44 high CD8+ T cells): high
mitochondrial size (CD44 low CD8+ T cells): no change
structure of cristae (CD44 low CD8+ T cells): denser structures of cristae

From patent US20220401385A1, “Combination Therapy Based on PD-1 Signaling Inhibitors” (Kyoto University, priority 2019, published 2022)
